24 compounds from ChEMBL document CHEMBL1201862, “PubChem BioAssay data set” (2004) can be followed below.

For assay [1], the target named is T1, Rac GTPase-activating protein 1 (Homo sapiens, UniProt Q9H0H5).
T1 sequence (Q9H0H5 whole entry): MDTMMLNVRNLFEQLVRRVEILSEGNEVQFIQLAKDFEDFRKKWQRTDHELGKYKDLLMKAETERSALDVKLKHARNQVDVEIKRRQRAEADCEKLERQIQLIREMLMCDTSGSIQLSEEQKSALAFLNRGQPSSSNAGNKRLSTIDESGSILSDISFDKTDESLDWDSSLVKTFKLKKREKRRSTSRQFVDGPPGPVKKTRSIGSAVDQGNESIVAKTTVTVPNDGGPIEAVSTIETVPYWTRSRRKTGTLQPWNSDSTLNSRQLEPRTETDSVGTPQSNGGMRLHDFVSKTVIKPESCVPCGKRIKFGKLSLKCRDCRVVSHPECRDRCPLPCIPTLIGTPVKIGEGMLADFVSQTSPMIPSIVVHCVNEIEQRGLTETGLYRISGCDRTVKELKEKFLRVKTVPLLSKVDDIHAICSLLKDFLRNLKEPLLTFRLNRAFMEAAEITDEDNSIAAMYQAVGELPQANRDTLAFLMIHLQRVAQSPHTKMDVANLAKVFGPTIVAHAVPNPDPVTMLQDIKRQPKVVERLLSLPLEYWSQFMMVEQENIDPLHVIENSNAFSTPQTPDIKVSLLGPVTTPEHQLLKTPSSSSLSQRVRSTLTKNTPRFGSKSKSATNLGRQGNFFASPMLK
In words: blockers of MgcRacGAP-driven Rac1 GTP hydrolysis – biochemical, ADP Hunter fluorescence, primary and confirmatory, confirmation (AID 624330). The class given is functional.

The target in assay [2] is Cytochrome P450 2D6 (Homo sapiens, UniProt P10635).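 Note: CYP2D6 member of a cytochrome P450 panel assay.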
Assay [3] addresses Cytochrome P450 3A4 (Homo sapiens, UniProt P08684).
For assay [4], the target named is Cytochrome P450 2C9 (Homo sapiens, UniProt P11712).
Assay [5] in a line: Luminescence Cell-Based Dose Retest to Confirm Inhibitors of Cancer Stem Cells. [Related pubchem assays (depositor defined):AID2717, AID2721]. The class given is functional. Conditions: Homo sapiens.
The nature of assay [6]: Trypanosoma cruzi growth suppression in host cells – NIH3T3 host cells, beta-gal luminescence, confirmation (AID 2044).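 Note: intracellular parasites grown in NIH/3T3 mouse fibroblasts as host cells; luminescent beta-galactosidase reporter signal from transgenic T. cruzi replicating inside host cells; inhibitors lower the luminescence signal.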 The class given is functional, cell-based.
Assay [7] is described as follows: NIH3T3 cell viability loss – ATP luminescence, mouse fibroblasts, counter-screen, dose response (AID 2010).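 Note: cells exposed to compound for about 90 hours before reading.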 The format is functional, cell-based. For orientation: A counterscreen serves to expose hits that act by an unwanted route or on another target.

Structures can show the parent of a compound that is named as a salt. Active and inactive are the calls of the source. Where only a bound is given, the exact number is not on record here.

Sequence of Cytochrome P450 3A4 (P08684 whole entry): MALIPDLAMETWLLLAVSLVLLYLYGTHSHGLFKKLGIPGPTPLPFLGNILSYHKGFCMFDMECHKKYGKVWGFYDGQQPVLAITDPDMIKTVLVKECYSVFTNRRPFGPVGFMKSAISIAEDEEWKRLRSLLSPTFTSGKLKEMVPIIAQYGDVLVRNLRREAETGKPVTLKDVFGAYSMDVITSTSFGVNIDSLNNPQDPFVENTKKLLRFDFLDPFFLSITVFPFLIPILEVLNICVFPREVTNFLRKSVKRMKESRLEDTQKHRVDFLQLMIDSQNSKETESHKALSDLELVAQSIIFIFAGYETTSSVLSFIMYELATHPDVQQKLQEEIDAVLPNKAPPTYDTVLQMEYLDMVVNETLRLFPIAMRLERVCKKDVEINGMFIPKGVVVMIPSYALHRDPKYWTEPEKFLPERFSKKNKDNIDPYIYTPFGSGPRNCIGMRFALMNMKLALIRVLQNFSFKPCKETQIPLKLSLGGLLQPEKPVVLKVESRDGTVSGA
Sequence of Cytochrome P450 2C9 (P11712 whole entry): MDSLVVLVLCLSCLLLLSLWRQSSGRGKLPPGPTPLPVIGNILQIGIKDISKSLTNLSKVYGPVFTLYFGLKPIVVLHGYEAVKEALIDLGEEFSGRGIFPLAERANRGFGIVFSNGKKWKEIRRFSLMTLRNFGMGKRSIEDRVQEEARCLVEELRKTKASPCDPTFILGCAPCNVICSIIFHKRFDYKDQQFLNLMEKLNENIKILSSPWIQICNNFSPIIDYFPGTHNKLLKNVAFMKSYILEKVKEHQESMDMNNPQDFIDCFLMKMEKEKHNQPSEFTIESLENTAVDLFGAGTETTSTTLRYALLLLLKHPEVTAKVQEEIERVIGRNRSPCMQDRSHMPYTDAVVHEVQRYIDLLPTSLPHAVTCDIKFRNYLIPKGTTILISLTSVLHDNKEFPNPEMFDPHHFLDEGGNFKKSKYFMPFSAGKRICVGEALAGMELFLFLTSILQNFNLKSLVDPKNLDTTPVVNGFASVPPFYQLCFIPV
Sequence of Cytochrome P450 2D6 (P10635 whole entry): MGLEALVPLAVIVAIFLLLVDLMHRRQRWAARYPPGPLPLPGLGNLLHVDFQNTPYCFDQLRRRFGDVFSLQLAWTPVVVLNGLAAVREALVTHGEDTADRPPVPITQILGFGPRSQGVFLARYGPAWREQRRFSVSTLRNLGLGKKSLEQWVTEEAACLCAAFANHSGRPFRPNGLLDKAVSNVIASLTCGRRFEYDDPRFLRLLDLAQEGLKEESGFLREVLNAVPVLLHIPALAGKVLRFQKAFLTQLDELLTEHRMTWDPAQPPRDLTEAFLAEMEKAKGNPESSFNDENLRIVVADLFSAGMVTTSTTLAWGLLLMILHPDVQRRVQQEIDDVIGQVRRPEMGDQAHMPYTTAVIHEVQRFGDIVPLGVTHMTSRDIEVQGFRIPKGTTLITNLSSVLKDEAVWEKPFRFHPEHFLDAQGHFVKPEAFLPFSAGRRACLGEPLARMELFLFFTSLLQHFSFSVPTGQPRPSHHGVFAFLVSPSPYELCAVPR

As a reminder, the IC50 is the midpoint of a concentration-inhibition curve. For the compound `COc1ccc(CN2CCN(Cc3ccco3)CC2)cc1OC`, the IC50 in assay [1] is 69.2 µM (active). As a reminder, the AC50 is the concentration giving half of the maximal activity seen. With `Oc1ccnc2cccc(Cc3ccccc3)c12`, the AC50 is 0.00708 µM (inconclusive) in assay [2], 28.2 µM (inconclusive) in assay [3] and 15.8 µM (inconclusive) in assay [4]. `Cc1ccn2c(Nc3ccc4c(c3)OCO4)c(-c3ccc(O)cc3)nc2c1`: the IC50 in assay [1] is 39.7 µM (active). Regarding `CSc1ccc2c(c1)C(N1CCN(C)CC1)Cc1ccccc1S2` (stereo not drawn), in assay [5], the AC50 is 11.1 µM (active). For `Cc1[nH]c2ccccc2c1-c1csc(NC(=O)CSCCO)n1`, the IC50 in assay [1] was 122 µM (active).

For the compound `Cc1ccc(-c2cc(C(=O)NCc3ccc4c(c3)OCO4)no2)cc1`, the AC50 in assay [5] is > 195 µM (inactive).

With `O=C(c1cccnc1)N1CCN(Cc2cccc(Br)c2)CC1`, the IC50 in assay [1] is 117 µM (active).

Regarding `COc1ccc(OC(=O)C2CC(=O)N(c3ccc(C)cc3)C2)cc1` (stereo not drawn), the IC50 in assay [1] was 48.3 µM (active). On to `CN(C)c1ncc2nc(-c3ccccc3)c(=O)n(C[C@H]3CCCO3)c2n1`, for which the half-maximal activity concentration (AC50) in assay [2] is 12.6 µM (inconclusive); in assay [3], 12.6 µM (inconclusive); in assay [4], 20 µM (inconclusive). Regarding `Cn1cccc1-c1nc2ccccc2n1Cc1ccccc1`, the AC50 in assay [5] was 10.4 µM (active). On the same count and under the same terms, as for `COc1ccc(C(=O)CSc2nnc(CN3CCCCC3)n2-c2ccc(Cl)cc2)cc1OC`, the figure is 2.91 µM (active). On to `Cc1c(N=Nc2ccc(O)cc2)c(=O)n(-c2ccccc2)n1C`, for which the IC50 in assay [1] is 19.8 µM (active). For `COc1ncc2nc(C)c(=O)n(CCc3ccccc3)c2n1`, the values for the AC50 in assay [3] and in assay [4] were 15.8 µM (inconclusive) and 20 µM (inconclusive), respectively. On to `COc1cccc(O)c1CN1CCC(C(=O)Nc2ccc(-c3cccc(C)c3)cc2)CC1`, for which, in assay [5], the AC50 was 6.71 µM (active). `Cc1ccccc1OCC(O)Cn1c2ccccc2c2ccccc21` (stereo not drawn): in assay [5], the AC50 was 5.66 µM (active). Same read-out and setting: the value for `Clc1ccc(-c2nnc(-c3ccccc3)c(-c3ccccc3)n2)cc1` was 10.1 µM (active). Take `COc1ccc(NC2CCCN(C(=O)C3(C)CCCCC3)C2)cc1` (stereo not drawn): the IC50 in assay [1] was 80.7 µM (active).

Consider `CCCCCCSc1ccc(-c2nc3cnccn3c2NCCCC)cc1`, for which the AC50 in assay [5] is 3.59 µM (active). On to `O=C1C(O)=C(C(C2=C(O)C(=O)c3ccccc3C2=O)c2ccc(Cl)cc2)C(=O)c2ccccc21`, for which the AC50 in assay [2] was 2.51 µM (inconclusive); in assay [3] it was 3.16 µM (inconclusive); in assay [4] it was 3.16 µM (inconclusive).

Take `O=C(CNC(=O)c1ccccc1Br)N/N=C/c1ccc(O)cc1`: in assay [1], the IC50 is 58.7 µM (active). The same measure, in the same setting: as for `Oc1ccc(/C=N/N=C/c2ccc(O)cc2)cc1`, the figure is 77.6 µM (active); as for `Oc1cc(Br)ccc1/C=N/c1ccc(N2CCCCC2)cc1`, 5.88 µM (active).

By EC50 is commonly meant the concentration needed to bring the measured effect to its halfway point. On to `Cc1ccc2nc(Cl)c3cc(C(=O)N(CCN(C)C)Cc4ccco4)sc3c2c1`, for which the EC50 in assay [6] is 123 nM (active); in assay [7] it was > 60 µM (not active). Also, the AC50 in assay [5] was 1.86 µM (active). Regarding `CC/C(=C(\c1ccccc1)c1ccc(OCCN(C)C)cc1)c1ccccc1` [TAMOXIFEN CITRATE], the AC50 in assay [5] is 4.53 µM (active).
